Reference: patent publication US20240124469A1, “PIM KINASE INHIBITOR” (Hangzhou Biosun Pharmaceutical Co., Ltd., priority 2021, published 2024)
Where two headings read alike, the source gives them in different places.

Key:
PIM1 = PIM1 (Homo sapiens (Human), UniProt P11309); assay: PIM1 kinase activity test (Mobility shift assay); assay type: biochemical
Experimental: (§1) The efficacy of the compounds on the activity of PIM1/2/3 was tested by utilizing the Mobility shift assay method, with the specific procedures shown as follows: the test compounds were each dissolved in DMSO to be prepared into a 10 mM stock solution; for each of the test compounds, the stock solution was subjected to a 3-fold dilution from an initial concentration of 10 μM to obtain 10 concentrations.
(§2) PIM1, PIM2, and PIM3 (all three kinases are from Carna) were each prepared with 1× Kinase buffer into a kinase solution at a concentration that was 2.5 times the final concentration. 10 μL of kinase solution at a concentration that was 2.5 times the final concentration was added to each of the compound wells and the positive control well, and 10 μL of 1× Kinase buffer was added to the negative control well. The plate was centrifuged at 1000 rpm for 30 s, mixed well by shaking, and then incubated at room temperature for 10 min. A mixed solution of ATP and Kinase substrate 20 (from GL) at a concentration that was 25/15 times the final concentration was prepared with 1× Kinase buffer. The reaction was started by adding 15 μL of the mixed solution of ATP and Kinase substrate 20 at a concentration that was 25/15 times the final concentration. The 384-well plate was centrifuged at 1000 rpm for 30 s, mixed well by shaking, and then incubated at room temperature for 60 min. 30 μL of stop assay buffer was added to stop the kinase reaction. The plate was centrifuged at 1000 rpm for 30 s and mixed well by shaking. The conversion rates were read using Caliper EZ Reader.
(§3) The IC50 values of the test compounds for kinase activity were obtained by adopting a fitted dose-response curve of analytic software GraphPad Prism 5.

Pharmacokinetic test = assay type: in vivo; conditions: BALB/c mice; for AUC(0-t) / clearance / half-life / Vd / Cmax / Tmax: female, mouse, plasma; for half-life: read-out: Terminal t1/2 (converted); for Vd: read-out: Vss
Experimental: Experimental animals: BALB/c mice, female; weight: 19-25 g.
Preparation of test sample: the target compound was prepared into solutions at 0.4 mg/mL (for intravenous administration) and 5.0 mg/mL (for oral administration) for later use. Route of administration: oral administration/intravenous injection. Dosing volume and frequency: 5 mL/kg (intravenous injection) or 10 mL/kg (oral administration), single dose.
Sample collection: blood was collected at the following time points: 5 min, 15 min, 30 min, 1 hr, 2 hr, 4 hr, 8 hr, and 24 hr after the administration.
Sample analysis: the collected samples were detected by using an LC-MS/MS method. The model of the instrument used was AB Sciex 5500.
Pharmacokinetic data analysis: the resulting plasma concentration data were fitted and calculated according to a non-compartmental model.

Ba/F3-EPOR-JAK2-V617F = assay: Cell inhibitory activity test (72 h CTG); assay type: cell-based
Experimental: The EPOR-JAK2-V617F gene was transferred into Ba/F3 wild-type cells by a retrovirus packaging system to obtain a stably transfected cell line Ba/F3-EPOR-JAK2-V617F, which was used for the cell inhibitory activity ICso test of the compounds (reference: Blood. 2010; 115(15): 3109-3117). The specific procedures were as follows: • Cells were seeded in a 96-well plate, treated with the test compounds from DMSO stock solutions (final concentration of DMSO is 0.2%), and cultured at 37° C. with 5% CO2 for 72 h. Then, the cell proliferation inhibitory activity was assayed by the CTG (Cell-Titer Glo) method. For each of the test compounds, the stock solution was subjected to a 3-fold dilution from an initial concentration of 10 μM to obtain 9 concentrations. The dose-response relationship curve was fitted by using Graphpad 7.0 analysis software, and IC50 values were obtained.

PIM2 = PIM2 (Homo sapiens (Human), UniProt Q9P1W9); assay: PIM2 kinase activity test (Mobility shift assay); assay type: biochemical
Chain of PIM2 (Q9P1W9 whole entry): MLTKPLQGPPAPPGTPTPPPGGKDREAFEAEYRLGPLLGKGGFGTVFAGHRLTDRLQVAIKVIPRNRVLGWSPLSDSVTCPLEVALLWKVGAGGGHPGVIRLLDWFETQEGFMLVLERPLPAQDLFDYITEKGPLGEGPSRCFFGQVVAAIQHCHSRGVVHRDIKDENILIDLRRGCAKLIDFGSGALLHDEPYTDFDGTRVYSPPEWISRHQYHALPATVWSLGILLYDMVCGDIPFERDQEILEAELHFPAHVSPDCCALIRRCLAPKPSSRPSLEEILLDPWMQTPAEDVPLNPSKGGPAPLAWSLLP
Experimental: as §1, §2, §3

PIM3 = PIM3 (Homo sapiens (Human), UniProt Q86V86); assay: PIM3 kinase activity test (Mobility shift assay); assay type: biochemical
Experimental: as §1, §2, §3

Chain of PIM1 (P11309 whole entry): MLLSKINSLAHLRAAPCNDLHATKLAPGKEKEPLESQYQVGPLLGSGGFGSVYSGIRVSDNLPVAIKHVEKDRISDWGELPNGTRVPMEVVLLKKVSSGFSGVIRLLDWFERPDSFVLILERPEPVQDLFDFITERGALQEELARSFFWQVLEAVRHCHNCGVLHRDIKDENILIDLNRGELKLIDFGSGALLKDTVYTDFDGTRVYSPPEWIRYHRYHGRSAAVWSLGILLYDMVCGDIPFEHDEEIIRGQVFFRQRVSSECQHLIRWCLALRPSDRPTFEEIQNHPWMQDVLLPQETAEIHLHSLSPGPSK

OC[C@@H]1CC[C@@H](Nc2ccc3ncc(-c4ccc(C(F)(F)F)s4)n3n2)CO1 [Compound 46, [(2S,5R)-5-[[3-[5-(trifluoromethyl)-2-thienyl]imidazo[1,2-b]pyridazin-6-yl]amino]tetrahydropyran-2-yl]methanol] gave an IC50 (PIM1) of 2 to 10 nM, an F (Pharmacokinetic test; oral administration, 50 mg/kg) of 89.9% and an AUC(0-t) (Pharmacokinetic test; intravenous injection, 2 mg/kg) of 523 ng·h/mL. It also gave a clearance (Pharmacokinetic test; intravenous injection, 2 mg/kg) of 65.8 mL/min/kg, a half-life (Pharmacokinetic test; intravenous injection, 2 mg/kg) of 0.26 h and a Vd (Pharmacokinetic test; intravenous injection, 2 mg/kg) of 1.47 L/kg. For the same molecule, the AUC(0-t) (Pharmacokinetic test; oral administration, 50 mg/kg) was 11800 ng·h/mL, the Cmax (Pharmacokinetic test; oral administration, 50 mg/kg) was 10600 ng/mL and the Tmax (Pharmacokinetic test; oral administration, 50 mg/kg) was 0.5 h. For the same molecule, the half-life (Pharmacokinetic test; oral administration, 50 mg/kg) was 0.91 h, the IC50 (Ba/F3-EPOR-JAK2-V617F) was 100 to 150 nM and the IC50 (PIM2) was 1000 to 10000 nM. It also gave an IC50 (PIM3) of 100 to 1000 nM.

In the case of CC(C)(O)[C@H]1CC[C@H](Nc2ccc3ncc(-c4cccc(C(F)(F)F)c4)n3n2)CC1 [TP-3654, reference compound], the IC50 (PIM1) is reported as 10 to 100 nM, the F (Pharmacokinetic test; oral administration, 50 mg/kg) is reported as 42.3% and the AUC(0-t) (Pharmacokinetic test; intravenous injection, 2 mg/kg) is reported as 652 ng·h/mL. The clearance (Pharmacokinetic test; intravenous injection, 2 mg/kg) was 51.8 mL/min/kg, the half-life (Pharmacokinetic test; intravenous injection, 2 mg/kg) was 1.24 h and the Vd (Pharmacokinetic test; intravenous injection, 2 mg/kg) was 5.58 L/kg. It also gave an AUC(0-t) (Pharmacokinetic test; oral administration, 50 mg/kg) of 6800 ng·h/mL, a Cmax (Pharmacokinetic test; oral administration, 50 mg/kg) of 2550 ng/mL and a Tmax (Pharmacokinetic test; oral administration, 50 mg/kg) of 1 h. It also gave a half-life (Pharmacokinetic test; oral administration, 50 mg/kg) of 1.33 h, an IC50 (Ba/F3-EPOR-JAK2-V617F) greater than 150 nM and an IC50 (PIM2) of 100 to 1000 nM. The IC50 (PIM3) was 100 to 1000 nM.

Work on CC(C)(O)[C@H]1CC[C@H](Nc2ccc3ncc(-c4ccc(C(F)(F)F)s4)n3n2)CC1 [Compound 20, 2-((1r,4r)-4-4-((3-(5-(trifluoromethyl)thiophen-2-yl)imidazo[1,2-b]pyridazin-6-yl)amino)cyclohexyl)propan-2-ol] yielded an IC50 (PIM1) of less than 2 nM, an F (Pharmacokinetic test; oral administration, 50 mg/kg) of 66.6% and an AUC(0-t) (Pharmacokinetic test; intravenous injection, 2 mg/kg) of 1090 ng·h/mL. For the same molecule, the clearance (Pharmacokinetic test; intravenous injection, 2 mg/kg) was 31 mL/min/kg, the half-life (Pharmacokinetic test; intravenous injection, 2 mg/kg) was 1.06 h and the Vd (Pharmacokinetic test; intravenous injection, 2 mg/kg) was 1.85 L/kg. For the same molecule, the AUC(0-t) (Pharmacokinetic test; oral administration, 50 mg/kg) was 18100 ng·h/mL, the Cmax (Pharmacokinetic test; oral administration, 50 mg/kg) was 3980 ng/mL and the Tmax (Pharmacokinetic test; oral administration, 50 mg/kg) was 1.33 h. The half-life (Pharmacokinetic test; oral administration, 50 mg/kg) was 3.5 h, the IC50 (Ba/F3-EPOR-JAK2-V617F) was less than 50 nM and the IC50 (PIM2) was 100 to 1000 nM. It also gave an IC50 (PIM3) of 10 to 100 nM.

Molecule OC12CCC(Nc3ccc4ncc(-c5ccc(C(F)(F)F)s5)n4n3)(CC1)CC2 [Compound 29, 4-[[3-[5-(trefluoromethyl)-2-thienyl]imidazo[1,2-b]pyridazin-6-yl]amino]bicyclo [2.2.2] octan-1-ol] has an IC50 (PIM1) of less than 2 nM, an F (Pharmacokinetic test; oral administration, 50 mg/kg) of 35.7% and an AUC(0-t) (Pharmacokinetic test; intravenous injection, 2 mg/kg) of 859 ng·h/mL. For the same molecule, the clearance (Pharmacokinetic test; intravenous injection, 2 mg/kg) was 39.7 mL/min/kg, the half-life (Pharmacokinetic test; intravenous injection, 2 mg/kg) was 0.42 h and the Vd (Pharmacokinetic test; intravenous injection, 2 mg/kg) was 1.38 L/kg. The AUC(0-t) (Pharmacokinetic test; oral administration, 50 mg/kg) was 7650 ng·h/mL, the Cmax (Pharmacokinetic test; oral administration, 50 mg/kg) was 6670 ng/mL and the Tmax (Pharmacokinetic test; oral administration, 50 mg/kg) was 0.33 h. For the same molecule, the half-life (Pharmacokinetic test; oral administration, 50 mg/kg) was 1.41 h, the IC50 (Ba/F3-EPOR-JAK2-V617F) was less than 50 nM and the IC50 (PIM2) was 10 to 100 nM. It also gave an IC50 (PIM3) of 10 to 100 nM.
